{
  "source": "the supplement of paper PMC6045584",
  "key": {"PACLITAXEL": {"compound": "CC(=O)O[C@H]1C(=O)[C@@]2(C)[C@H]([C@H](OC(=O)c3ccccc3)[C@]3(O)C[C@H](OC(=O)[C@H](O)[C@@H](NC(=O)c4ccccc4)c4ccccc4)C(C)=C1C3(C)C)[C@]1(OC(C)=O)CO[C@@H]1C[C@@H]2O [PACLITAXEL]", "assay": "surviving fraction relative to DMSO-only wells; higher = less growth inhibition", "settings": "exposure time: 5 days", "in_short": "(§1)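 Inhibitors were tested at 0.5, 1, 5, 10, 50, 100, 500 and 1000 nM, applied continuously for five days beginning 24 hours after log-phase tumour cells were seeded at 250–500 per well in 384-well plates. CellTiter-Glo luminescence served as the viability measure, expressed as surviving fraction against the median of DMSO-only wells. Each line, screened three times, was kept only with replicate Pearson r >0.7 and median Z' >0.3.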"}, "YM155": {"compound": "COCC[n+]1c2c(n(Cc3cnccn3)c1C)C(=O)c1ccccc1C2=O [YM155]", "assay": "surviving fraction relative to DMSO-only wells; higher = less growth inhibition", "settings": "exposure time: 5 days", "in_short": "as §1"}},
  "note": "± gives the standard deviation of the averaged measurements.",
  "data": [
    {"test system": "MDAMB453 BREAST", "values": [
      {"measurement": "surviving fraction", "setting": "PACLITAXEL; 0.5 nM", "value": "0.988 ± 0.082"},
      {"measurement": "surviving fraction", "setting": "PACLITAXEL; 1 nM", "value": "0.998 ± 0.096"},
      {"measurement": "surviving fraction", "setting": "PACLITAXEL; 5 nM", "value": "0.382 ± 0.051"},
      {"measurement": "surviving fraction", "setting": "PACLITAXEL; 10 nM", "value": "0.303 ± 0.02"},
      {"measurement": "surviving fraction", "setting": "PACLITAXEL; 50 nM", "value": "0.164 ± 0.014"},
      {"measurement": "surviving fraction", "setting": "PACLITAXEL; 100 nM", "value": "0.145 ± 0.016"},
      {"measurement": "surviving fraction", "setting": "PACLITAXEL; 500 nM", "value": "0.131 ± 0.015"},
      {"measurement": "surviving fraction", "setting": "PACLITAXEL; 1000 nM", "value": "0.134 ± 0.015"},
      {"measurement": "surviving fraction", "setting": "YM155; 0.5 nM", "value": "0.989 ± 0.048"},
      {"measurement": "surviving fraction", "setting": "YM155; 1 nM", "value": "0.949 ± 0.089"},
      {"measurement": "surviving fraction", "setting": "YM155; 5 nM", "value": "0.306 ± 0.021"},
      {"measurement": "surviving fraction", "setting": "YM155; 10 nM", "value": "0.2993 ± 0.0025"},
      {"measurement": "surviving fraction", "setting": "YM155; 50 nM", "value": "0.11 ± 0.0085"},
      {"measurement": "surviving fraction", "setting": "YM155; 100 nM", "value": "0.0773 ± 0.014"},
      {"measurement": "surviving fraction", "setting": "YM155; 500 nM", "value": "0.0533 ± 0.0076"},
      {"measurement": "surviving fraction", "setting": "YM155; 1000 nM", "value": "0.057 ± 0.017"}
    ]},
    {"test system": "C33A CERVIX", "values": [
      {"measurement": "surviving fraction", "setting": "PACLITAXEL; 0.5 nM", "value": "0.855 ± 0.042"},
      {"measurement": "surviving fraction", "setting": "PACLITAXEL; 1 nM", "value": "0.842 ± 0.054"},
      {"measurement": "surviving fraction", "setting": "PACLITAXEL; 5 nM", "value": "0.328 ± 0.015"},
      {"measurement": "surviving fraction", "setting": "PACLITAXEL; 10 nM", "value": "0.179 ± 0.031"},
      {"measurement": "surviving fraction", "setting": "PACLITAXEL; 50 nM", "value": "0.11 ± 0.0091"},
      {"measurement": "surviving fraction", "setting": "PACLITAXEL; 100 nM", "value": "0.173 ± 0.047"},
      {"measurement": "surviving fraction", "setting": "PACLITAXEL; 500 nM", "value": "0.089 ± 0.021"},
      {"measurement": "surviving fraction", "setting": "PACLITAXEL; 1000 nM", "value": "0.0977 ± 0.025"},
      {"measurement": "surviving fraction", "setting": "YM155; 0.5 nM", "value": "0.816 ± 0.047"},
      {"measurement": "surviving fraction", "setting": "YM155; 1 nM", "value": "0.325 ± 0.029"},
      {"measurement": "surviving fraction", "setting": "YM155; 5 nM", "value": "0.057 ± 0.032"},
      {"measurement": "surviving fraction", "setting": "YM155; 10 nM", "value": "0.031 ± 0.0062"},
      {"measurement": "surviving fraction", "setting": "YM155; 50 nM", "value": "0.0213 ± 0.00058"},
      {"measurement": "surviving fraction", "setting": "YM155; 100 nM", "value": "0.0393 ± 0.041"},
      {"measurement": "surviving fraction", "setting": "YM155; 500 nM", "value": "0.0193 ± 0.0076"},
      {"measurement": "surviving fraction", "setting": "YM155; 1000 nM", "value": "0.0353 ± 0.015"}
    ]},
    {"test system": "LNCAP PROSTATE", "values": [
      {"measurement": "surviving fraction", "setting": "PACLITAXEL; 0.5 nM", "value": "0.531 ± 0.04"},
      {"measurement": "surviving fraction", "setting": "PACLITAXEL; 1 nM", "value": "0.358 ± 0.086"},
      {"measurement": "surviving fraction", "setting": "PACLITAXEL; 5 nM", "value": "0.054 ± 0.015"},
      {"measurement": "surviving fraction", "setting": "PACLITAXEL; 10 nM", "value": "0.0533 ± 0.004"},
      {"measurement": "surviving fraction", "setting": "PACLITAXEL; 50 nM", "value": "0.0417 ± 0.0015"},
      {"measurement": "surviving fraction", "setting": "PACLITAXEL; 100 nM", "value": "0.0347 ± 0.0038"},
      {"measurement": "surviving fraction", "setting": "PACLITAXEL; 500 nM", "value": "0.0387 ± 0.0021"},
      {"measurement": "surviving fraction", "setting": "PACLITAXEL; 1000 nM", "value": "0.0477 ± 0.0055"},
      {"measurement": "surviving fraction", "setting": "YM155; 0.5 nM", "value": "0.92 ± 0.085"},
      {"measurement": "surviving fraction", "setting": "YM155; 1 nM", "value": "0.943 ± 0.033"},
      {"measurement": "surviving fraction", "setting": "YM155; 5 nM", "value": "0.87 ± 0.097"},
      {"measurement": "surviving fraction", "setting": "YM155; 10 nM", "value": "0.978 ± 0.1"},
      {"measurement": "surviving fraction", "setting": "YM155; 50 nM", "value": "0.227 ± 0.032"},
      {"measurement": "surviving fraction", "setting": "YM155; 100 nM", "value": "0.069 ± 0.0044"},
      {"measurement": "surviving fraction", "setting": "YM155; 500 nM", "value": "0.0267 ± 0.0055"},
      {"measurement": "surviving fraction", "setting": "YM155; 1000 nM", "value": "0.0267 ± 0.0015"}
    ]},
    {"test system": "SCC90 HEADNECK", "values": [
      {"measurement": "surviving fraction", "setting": "PACLITAXEL; 0.5 nM", "value": "0.919 ± 0.038"},
      {"measurement": "surviving fraction", "setting": "PACLITAXEL; 1 nM", "value": "0.95 ± 0.12"},
      {"measurement": "surviving fraction", "setting": "PACLITAXEL; 5 nM", "value": "0.429 ± 0.057"},
      {"measurement": "surviving fraction", "setting": "PACLITAXEL; 10 nM", "value": "0.294 ± 0.063"},
      {"measurement": "surviving fraction", "setting": "PACLITAXEL; 50 nM", "value": "0.119 ± 0.024"},
      {"measurement": "surviving fraction", "setting": "PACLITAXEL; 100 nM", "value": "0.0713 ± 0.011"},
      {"measurement": "surviving fraction", "setting": "PACLITAXEL; 500 nM", "value": "0.07 ± 0.012"},
      {"measurement": "surviving fraction", "setting": "PACLITAXEL; 1000 nM", "value": "0.0663 ± 0.01"},
      {"measurement": "surviving fraction", "setting": "YM155; 0.5 nM", "value": "0.914 ± 0.097"},
      {"measurement": "surviving fraction", "setting": "YM155; 1 nM", "value": "0.937 ± 0.021"},
      {"measurement": "surviving fraction", "setting": "YM155; 5 nM", "value": "1.08 ± 0.1"},
      {"measurement": "surviving fraction", "setting": "YM155; 10 nM", "value": "1.1 ± 0.037"},
      {"measurement": "surviving fraction", "setting": "YM155; 50 nM", "value": "0.676 ± 0.085"},
      {"measurement": "surviving fraction", "setting": "YM155; 100 nM", "value": "0.276 ± 0.039"},
      {"measurement": "surviving fraction", "setting": "YM155; 500 nM", "value": "0.0483 ± 0.0067"},
      {"measurement": "surviving fraction", "setting": "YM155; 1000 nM", "value": "0.0363 ± 0.0031"}
    ]}
  ]
}
